± gives the standard deviation of the reports.
Row | Structure (SMILES) | glass transition temperature [°C]
1 | *c1ccc2c(c1)C(=O)N(c1cc(C)c(N3C(=O)c4ccc(C(*)(C(F)(F)F)C(F)(F)F)cc4C3=O)cc1C)C2=O (repeat unit) | 367.00 ± 17
2 | *c1ccc(OCCN(CCOc2ccc(-c3nc4ccc(Oc5ccc6nc(*)c(-c7ccccc7)nc6c5)cc4nc3-c3ccccc3)cc2)c2ccc(/C=C/c3ccc([N+](=O)[O-])cc3)cc2)cc1 (repeat unit) | 201.00
3 | *O[Si](c1ccccc1)(c1ccccc1)c1ccc([Si](*)(c2ccccc2)c2ccccc2)cc1 (repeat unit) | 130.00
4 | *CCCCCNC(=O)CC(=O)N* (repeat unit) | 65.00
5 | *c1ccc(Oc2c(C)cc(-c3cc(C)c(Oc4ccc(N5C(=O)c6ccc(Oc7ccccc7Oc7ccc8c(c7)C(=O)N(*)C8=O)cc6C5=O)cc4C(F)(F)F)c(C)c3)cc2C)c(C(F)(F)F)c1 (repeat unit) | 270.00
6 | *c1ccc(Oc2ccc3ccc(Oc4ccc(-n5c(=O)c6cc7c(=O)n(*)c(=O)c7cc6c5=O)cc4)cc3c2)cc1 (repeat unit) | 320.80
7 | *c1ccc(Sc2ccc(Sc3ccc(Sc4ccc(S(*)(=O)=O)cc4S(=O)(=O)O)cc3)cc2)c(S(=O)(=O)O)c1 (repeat unit) | 202.00
8 | *CC(*)c1cccc(Br)c1 (repeat unit) | 102.00
9 | *c1ccc(Oc2c(C)cc(Cc3cc(C)c(Oc4ccc(N5C(=O)c6ccc(-c7ccc8c(c7)C(=O)N(*)C8=O)cc6C5=O)cc4)c(C)c3)cc2C)cc1 (repeat unit) | 310.00
10 | *CC(*)C(=O)Oc1ccccc1C(C)(C)C (repeat unit) | 72.00
11 | *CC(*)(C)C(=O)OCCS(=O)(=O)c1ccc(/N=N/c2ccc(N(CC)CC)cc2)cc1 (repeat unit) | 142.00
12 | *c1ccc(Oc2ccc(N3C(=O)c4cccc(Oc5c(Oc6cccc7c6C(=O)N(*)C7=O)cc(C(C)(C)C)cc5C(C)(C)C)c4C3=O)cc2)cc1 (repeat unit) | 238.00
13 | *c1ccc2c(c1)C(=O)N(c1ccc(C(=O)Nc3ccc(Oc4ccc(C(c5ccc(Oc6ccc(NC(=O)c7ccc(N8C(=O)c9ccc(C(*)(C(F)(F)F)C(F)(F)F)cc9C8=O)cc7)cc6)cc5)(C(F)(F)F)C(F)(F)F)cc4)cc3)cc1)C2=O (repeat unit) | 293.00
14 | */C=C/c1cc(OCCCCCCCCCCCC)c(*)cc1OC (repeat unit) | 36.00
15 | *CC(O)COc1ccc(C(C)(C)c2ccc(OCC(O)COc3ccc(Oc4ccc(O*)cc4)cc3)cc2)cc1 (repeat unit) | 85.00
16 | *c1ccc(N2C(=O)c3ccc(C(=O)c4ccc5c(c4)C(=O)N(c4ccc(-c6nc7cc(S(=O)(=O)c8ccc9nc(-c%10ccccc%10)c(*)nc9c8)ccc7nc6-c6ccccc6)cc4)C5=O)cc3C2=O)cc1 (repeat unit) | 240.00
17 | *C1CC2CC1C(*)C2CCCC (repeat unit) | 235.00
18 | *C(=O)c1ccc2c(c1)C(=O)N(c1ccc(C(C)(C)c3cccc(C(C)(C)c4ccc(N5C(=O)c6ccc(*)cc6C5=O)cc4)c3)cc1)C2=O (repeat unit) | 316.50
19 | *c1ccc(Oc2ccc(Oc3ccc(N4C(=O)c5ccc(Oc6ccc(C7(c8ccc(Oc9ccc%10c(c9)C(=O)N(*)C%10=O)cc8)CCCCCCCCCCC7)cc6)cc5C4=O)cc3)c(C(C)(C)C)c2)cc1 (repeat unit) | 262.00
20 | *CC(*)c1ccc(Cl)c(C)c1 (repeat unit) | 114.00
21 | *CCCCCCCCCCCCCCc1ccc(-c2c(-c3ccccc3)cc(-c3ccc(-c4cc(-c5ccccc5)c(-c5ccc(*)cc5)c(-c5ccccc5)c4-c4ccccc4)cc3)c(-c3ccccc3)c2-c2ccccc2)cc1 (repeat unit) | 185.00

Row | Structure (SMILES) | glass transition temperature [°C]
22 | *CCCCC(=O)NCc1ccc(CNC(=O)CCCCS*)cc1 (repeat unit) | 70.00
23 | *OC(=O)Cc1ccc(CC(*)=O)cc1 (repeat unit) | 65.00
24 | *CCCCCC(*)CCCCCCCC (repeat unit) | -72.00
25 | *CCCCCCCCCCCCCCCCOC(=O)NCCCCCCCCCCNC(=O)O* (repeat unit) | 34.00
26 | *CCCCCCCCN1C(=O)c2ccc(C(=O)c3ccc4c(c3)C(=O)N(*)C4=O)cc2C1=O (repeat unit) | 113.00
27 | *CCCNC(=O)C(Cc1ccccc1)NC(=O)CCCCCCCCC(=O)NC(Cc1ccccc1)C(=O)NCCCOCCOCCO* (repeat unit) | 44.00
28 | *c1ccc2c(c1)Sc1cc(-c3sc4cc(*)sc4c3CCCCC)ccc1N2CCCCCC (repeat unit) | 126.00
29 | *CCCCCCCCCNC(=O)N* (repeat unit) | 130.00
30 | *c1ccc(Oc2ccc(-c3cnc4ccc(Oc5ccc6nc(*)cnc6c5)cc4n3)cc2)cc1 (repeat unit) | 270.00
31 | *c1ccc(Oc2cccc(Oc3ccc(N4C(=O)c5ccc(Oc6ccc(Sc7ccc(Oc8ccc9c(c8)C(=O)N(*)C9=O)cc7)cc6)cc5C4=O)cc3)c2)cc1 (repeat unit) | 178.00
32 | *C(=O)OCCN(CCOC(=O)c1ccc2c(c1)C(=O)N(c1c(C)cc(Cc3cc(C)c(N4C(=O)c5ccc(*)cc5C4=O)c(C)c3)cc1C)C2=O)c1ccccc1 (repeat unit) | 177.00
33 | *c1ccc(-c2ccc3nc(Oc4cc(-c5ccccc5)c5cc(*)ccc5n4)cc(-c4ccccc4)c3c2)cc1 (repeat unit) | 300.00
34 | *c1ccc(Oc2ccc(C(c3ccc(Oc4ccc(-c5nc(-c6ccccn6)nnc5*)cc4)cc3)(C(F)(F)F)C(F)(F)F)cc2)cc1 (repeat unit) | 224.00
35 | *CC(*)(C)c1ccc(C(O)C(F)(F)F)cc1 (repeat unit) | 199.00
36 | *c1ccc(C(=O)Nc2cccc(Oc3ccc(S(=O)(=O)c4ccc(Oc5cccc(NC(=O)c6ccc(N7C(=O)c8ccc(-c9ccc%10c(c9)C(=O)N(*)C%10=O)cc8C7=O)cc6)c5)cc4)cc3)c2)cc1 (repeat unit) | 262.00
37 | *Oc1ccc(C(c2ccc(Oc3ccc(C(=O)c4cccc5cccc(C(=O)c6ccc(*)cc6)c45)cc3)cc2)(C(F)(F)F)C(F)(F)F)cc1 (repeat unit) | 213.00
38 | *CCCNC(=O)CNC(=O)C(NC(=O)C(Cc1ccccc1)NC(=O)CCCCCCCCC(=O)NC(Cc1ccccc1)C(=O)NC(C(=O)NCC(=O)NCCCOCCOCCO*)C(C)C)C(C)C (repeat unit) | 58.00
39 | *CCCNC(=O)c1ccc(C(=O)NCCCO*)cc1 (repeat unit) | 72.00
40 | *O[Si](*)(C)CCCOc1ccc(-c2ccc(OC(=O)CCCCC(=O)OC3CC(C)CCC3C(C)C)cc2)cc1 (repeat unit) | 43.30
41 | *CC(*)C1CCCC1 (repeat unit) [Poly(vinyl cyclopentane) ] | 75 ± 0.6
42 | *CC(*)c1ccc(C(C)(C)C)cc1 (repeat unit) [Poly(p-t-butyl styrene)] | 129 ± 5.6

Row | Structure (SMILES) | glass transition temperature [°C]
43 | *CC(*)(C)C(=O)O[Si](C)(C)C (repeat unit) | 97.50
44 | *c1ccc(Oc2ccc(Oc3ccc(N4C(=O)c5cccc(Oc6ccc(C(C)(C)c7ccc(Oc8cccc9c8C(=O)N(*)C9=O)cc7)cc6)c5C4=O)c(C)c3)cc2)cc1C (repeat unit) | 222.00
45 | *C(=O)Nc1ccc(Oc2ccc(C3(c4ccc(Oc5ccc(NC(=O)c6ccc7c(c6)C(=O)N(c6ccc(Oc8ccc(S(=O)(=O)c9ccc(Oc%10ccc(N%11C(=O)c%12ccc(*)cc%12C%11=O)cc%10)cc9)cc8)cc6)C7=O)cc5)cc4)NC(=O)c4ccccc43)cc2)cc1 (repeat unit) | 283.00
46 | *CC(*)n1cncn1 (repeat unit) | 165.00
47 | *CC(*)(C)C(=O)OCCCCOc1ccc(C(=O)Oc2ccc(OC)cc2)cc1 (repeat unit) | 45.00
48 | *c1ccc(C2(c3ccc(-c4cc(-c5ccccc5)c5cc(C6(c7ccc8nc(*)cc(-c9ccccc9)c8c7)c7ccccc7C(=O)c7ccccc76)ccc5n4)cc3)c3ccccc3C(=O)c3ccccc32)cc1 (repeat unit) | 390.00
49 | *OC1CCC(OC(=O)OCCCCCOC(*)=O)CC1 (repeat unit) | -5.00
50 | *C(=O)Nc1ccc(Oc2ccccc2-c2ccccc2Oc2ccc(NC(=O)c3ccc4c(c3)C(=O)N(c3ccc(Oc5ccc(Oc6ccc(N7C(=O)c8ccc(*)cc8C7=O)cc6)cc5)cc3)C4=O)cc2)cc1 (repeat unit) | 238.00
51 | *C(=O)Nc1ccc(Oc2cc(C(C)(C)C)c(Oc3ccc(NC(=O)c4ccc5c(c4)C(=O)N(c4ccc(Oc6ccc(C7(c8ccc(Oc9ccc(N%10C(=O)c%11ccc(*)cc%11C%10=O)cc9)cc8)CC8CC7C7CCCC87)cc6)cc4)C5=O)cc3)cc2C(C)(C)C)cc1 (repeat unit) | 290.00
52 | *CC(*)(C)C(=O)OCCCCc1ccccc1 (repeat unit) | 9.00
53 | *CC(CC)N(*)C(=O)CCCC (repeat unit) | 52.00
54 | *c1ccc(Oc2ccccc2Oc2ccc(N3C(=O)c4ccc(Oc5ccccc5Oc5ccc6c(c5)C(=O)N(*)C6=O)cc4C3=O)cc2)cc1 (repeat unit) | 193.00
55 | *CCCCNC(=O)c1cccc(C(=O)N*)c1 (repeat unit) | 141.00
56 | *C(F)(F)C1(*)OC(F)(C(F)(F)F)C(F)(C(F)(F)F)O1 (repeat unit) | 165.00
57 | *c1ccc(Oc2ccc(N3C(=O)c4cccc(Oc5c(C)cc(-c6cc(C)c(Oc7cccc8c7C(=O)N(*)C8=O)c(C)c6)cc5C)c4C3=O)cc2)cc1 (repeat unit) | 298.00
58 | *Oc1ccccc1C(=O)OC(=O)c1ccccc1OC(=O)c1cccc(C(*)=O)c1 (repeat unit) | 105.00
59 | *CCN(CCOC(=O)Nc1cccc(NC(=O)O*)c1C)c1ccc(/C=C/c2ccc([N+](=O)[O-])cc2)cc1 (repeat unit) | 123.00
60 | *Oc1ccc(C(C)(C)c2ccc(OC(=O)C3CCC(C(*)=O)CC3)cc2)cc1 (repeat unit) | 150.00
61 | *CCCCC(c1ccc(O)cc1)C(*)c1ccc(O)cc1C (repeat unit) | 25.00
